Patent publication US12593845B2 (priority 2019, dated 2026)

Tests used:
[1] = tested on: apple scab pathogen (Venturia inaequalis); test: Apple scab control test; type: in vivo; settings: 336 h, 125 ppm drug solution sprayed onto apple seedlings (Orin), lesion area ratio 2 weeks after inoculation
Method in brief: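 Compound emulsion diluted in water to 125 ppm and sprayed on 3-4 leaf 'Orin' apple seedlings, which were inoculated with V. inaequalis conidiospores after drying and held humidified at 20° C, 12 h light/dark. Lesion area ratio scored 2 weeks post-inoculation; control value computed relative to unsprayed inoculated plants.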

[2] = tested on: wheat powdery mildew pathogen (Erysiphe graminis f. sp. tritici); test: Wheat powdery mildew control test; type: in vivo; settings: Blumeria graminis, 144 h; 125 ppm drug solution sprayed onto wheat seedlings (Chihoku); lesion area ratio 6 days after inoculation
Method: (§1) 5 parts by weight of the dihydropyrimidine compound of the present invention, 93.5 parts by weight of N,N-dimethylformamide, and 1.5 parts by weight of polyoxyethylene sorbitan monolaurate (TWEEN® 20) were mixed and dissolved to obtain an emulsion (I) including 5% of an active ingredient.
(§2) The control value was calculated by the following expression. Control value (%)=100−{lesion area ratio in treated group/lesion area ratio in untreated group}×100 [Expression 1]
Water was added to the emulsion (I) such that the concentration of the dihydropyrimidine compound reached 125 ppm to dissolve the emulsion, and a drug solution was obtained. Subsequently, the drug solution was sprayed onto wheat seedlings (variety: “Chihoku”, leaf stage: 1 to 2) cultivated in seedling pots. After air drying, conidiospores of a wheat powdery mildew pathogen (Erysiphe graminis f. sp. tritici) were sprinkled thereon for inoculation (treated group). As a control, wheat seedlings that were not sprayed with the drug solution were inoculated in the same manner as described above (untreated group). The seedlings were left to stand in a greenhouse at 20° C.
On the 6 days after the inoculation, the leaves of the wheat seedlings were visually observed to determine the lesion area ratio, and the control value was calculated.

[3] = tested on: wheat brown rust pathogen (Puccinia recondita); test: Wheat brown rust control test; type: in vivo; settings: 288 h, 125 ppm drug solution sprayed onto wheat seedlings (Norin 61), lesion area ratio 12 days after inoculation
Method: as §1, §2
Water was added to the emulsion (I) such that the concentration of the dihydropyrimidine compound reached 125 ppm to dissolve the emulsion, and a drug solution was obtained. Subsequently, the drug solution was sprayed onto wheat seedlings (variety: “Norin 61”, leaf stage: 1 to 2) cultivated in seedling pots. After air drying, uredospores of a wheat brown rust pathogen (Puccinia recondita) were sprinkled on wheat seedlings sprayed with the drug solution for inoculation (treated group). As a control, wheat seedlings that were not sprayed with the drug solution were inoculated in the same manner as described above (untreated group). The seedlings were left to stand in a greenhouse at 20° C.
On the 12 days after the inoculation, the leaves of the wheat seedlings were visually observed to determine the lesion area ratio, and the control value was calculated.

Aspergillus niger = test: Antimicrobial test against Aspergillus niger; type: cell-based; settings: 96 h, Vogel medium, 25° C., 4 days in the dark, turbidity at 405 nm, read-out: growth inhibition rate
Method in brief: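 A. niger spores dispersed in Vogel medium with compound (DMSO solution) at 25 ppm, cultured in the dark at 25° C. for 4 days. Turbidity at 405 nm compared with untreated culture to give growth inhibition (%).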

Meloidogyne incognita = test: Efficacy against Meloidogyne incognita; type: in vivo; settings: 96 h, second-instar larvae (L2), 40 μL of 125 ppm drug solution added to 160 μL suspension per well, 20° C., 4 days, read-out: nematode mortality rate
Method: as §1
A suspension containing about 50/0.16 mL second-instar larvae (L2) of Meloidogyne incognita was poured into a 96-well microplate at 160 μL per well. Then, a drug solution prepared by adding water to the emulsion (I) so as to have a concentration of the dihydropyrimidine compound of 125 ppm was poured at 40 μL per well. The plate was left to stand under a 20° C. condition for 4 days.
Mortality was determined, and the nematode mortality rate was calculated. […] The test repeated twice.

[4] = tested on: wheat powdery mildew pathogen (Erysiphe graminis f. sp. tritici); test: Wheat powdery mildew seed treatment test; type: in vivo; settings: Blumeria graminis, 168 h; seed treatment 100 g/100 kg wheat seeds (Chihoku); inoculation after 8 to 10 days; lesion area ratio 7 days after inoculation
Method: as §1, §2
The emulsion (I) was used to treat seeds such that (weight of dihydropyrimidine compound)/(weight of seeds) reached 100 g/100 kg based on the wheat seeds (variety: “Chihoku”). These seeds were disseminated in pots, and after 8 to 10 days, conidiospores of a wheat powdery mildew pathogen (Erysiphe graminis f. sp. tritici) were sprinkled thereon for inoculation (treated group). As a control, wheat seedlings that were not treated with the drug were inoculated in the same manner as described above (untreated group). The seedlings were left to stand in a greenhouse at 20° C.
(§3) On the 7 days after the inoculation, the leaves of the wheat seedlings were visually observed to determine the lesion area ratio, and the control value was calculated.

[5] = tested on: wheat powdery mildew pathogen (Erysiphe graminis f. sp. tritici); test: Wheat powdery mildew soil irrigation treatment test; type: in vivo; settings: Blumeria graminis, 168 h; soil irrigation with 10 ml of 100 ppm drug solution per pot, wheat (Chihoku); inoculation after 8 to 10 days; lesion area ratio 7 days after inoculation
Method: as §1, §2
Pots (5.5 cm×5.5 cm) in which wheat seeds (variety: “Chihoku”) were disseminated were irrigated with 10 ml of a drug solution prepared by adding water to the emulsion (I) so as to have a concentration of the dihydropyrimidine compound of 100 ppm. After 8 to 10 days, conidiospores of a wheat powdery mildew pathogen (Erysiphe graminis f. sp. tritici) were sprinkled thereon for inoculation (treated group). As a control, wheat seedlings that were not treated with the drug were inoculated in the same manner as described above (untreated group). The seedlings were left to stand in a greenhouse at 20° C.
as §3

[6] = tested on: cucumber gray mold pathogen (Botrytis cinerea); test: Cucumber gray mold control test; type: in vivo; settings: 125 ppm drug solution sprayed onto cucumber seedlings (cotyledon stage); lesion area ratio 4 days after inoculation
Method: as §1, §2
Water was added to the emulsion (I) such that the concentration of the dihydropyrimidine compound reached 125 ppm to dissolve the emulsion, and a drug solution was obtained. Subsequently, the drug solution was sprayed onto cucumber seedlings (variety: “creeping” type, cotyledon stage) cultivated in seedling pots. After air drying, a suspension of conidiospores of a cucumber gray mold pathogen (Botrytis cinerea) was dropped thereon for inoculation (treated group). As a control, cucumber seedlings that were not sprayed with the drug solution were inoculated by dropping in the same manner as described above (untreated group). The seedlings were left to stand in a humidified room at 20° C.
On the 4 days after the inoculation, the leaves of the cucumber seedlings were visually observed to determine the lesion area ratio, and the control value was calculated.

Structure (SMILES)	pest or weed control at 125 ppm [1] [%]	pest or weed control at 125 ppm [2] [%]	pest or weed control at 125 ppm [3] [%]	inhibition at 25 ppm (Aspergillus niger) [%]	mortality at 125 ppm (Meloidogyne incognita) [%]	pest or weed control at 100 g/100 kg seed [4] [%]	pest or weed control at 100 ppm [5] [%]	Control value [6] [%]
COc1ccc(F)cc1C(Cn1cc(C=NOC(C)C)c(=O)n(C(C)C(=O)NC(C)C)c1=O)OCCC#N (stereo not drawn) [A-14, 2-(3-(2-(2-cyanoethoxy)-2-(5-fluoro-2-methoxyphenyl)ethyl)-5-((isopropoxyimino)methyl)-2,6-dioxo-3,6-dihydropyrimidin-1(2H)-yl)-N-isopropylpropanamide]	≥ 75	≥ 75	≥ 75	≥ 50				
CCON=Cc1cn(CC(OCCC#N)c2cc(F)ccc2OC)c(=O)n(C(C)C(=O)NC(C)C)c1=O (stereo not drawn) [A-23]	≥ 75	≥ 75	≥ 75	≥ 50				
CCO/N=C(\C)c1cn(CC(OCCC#N)c2cc(F)ccc2OC)c(=O)n(CC(C)(C)C(=O)NC(C)C)c1=O (stereo not drawn) [A-24]	≥ 75	≥ 75	≥ 75	≥ 50				
CON=C(C)c1cn(CC(O)c2cc(F)ccc2OC)c(=O)n(C(C)C(=O)NC(C)C)c1=O (stereo not drawn) [A-28]					≥ 60			
COc1ccc(F)cc1C(Cn1cc(C=NOC(C)C)c(=O)n(C[C@H](C)NC(=O)C(C)C)c1=O)OCCC#N (stereo partly drawn) [A-60]	≥ 75	≥ 75	≥ 75	≥ 50		≥ 75	≥ 75	
COc1ccc(F)cc1C(Cn1cc(/C(C)=N/OC(C)C)c(=O)n(C[C@H](C)NC(=O)C(C)C)c1=O)OC (stereo partly drawn) [A-61]	≥ 75	≥ 75	≥ 75	≥ 50		≥ 75		
COc1ccc(F)cc1C(Cn1cc(/C(C)=N/OC(C)C)c(=O)n(C[C@H](C)NC(=O)C(C)C)c1=O)OCCC#N (stereo partly drawn) [A-63]	≥ 75	≥ 75	≥ 75	≥ 50				
C=C1CCN(C(=O)C(C)n2c(=O)c(C=NOC(C)C)cn(CC(OCCC#N)c3cc(F)ccc3OC)c2=O)CC1 (stereo not drawn) [A-64]			≥ 75		≥ 60			
COc1ccc(F)cc1C(O)Cn1cc(/C(C)=N/OC(C)C)c(=O)n(C[C@H](C)NC(=O)C(C)C)c1=O (stereo partly drawn) [A-75, N-((2S)-1-(3-(2-(5-fluoro-2-methoxyphenyl)-2-hydroxyethyl)-5-((E)-1-(isopropoxyimino)ethyl)-2,6-dioxo-3,6-dihydropyrimidin-1(2H)-yl)propan-2-yl)isobutyramide]	≥ 75	≥ 75		≥ 50		≥ 75	≥ 75	≥ 75
COc1ccc(F)cc1C(O)Cn1cc(C=NOC(C)C)c(=O)n(C[C@H](C)NC(=O)C(C)C)c1=O (stereo partly drawn) [A-76]	≥ 75	≥ 75	≥ 75	≥ 50		≥ 75	≥ 75	
COc1ccc(F)cc1C(Cn1cc(C=NOC(C)C)c(=O)n(C(C)C(=O)NC2CC2)c1=O)OCCC#N (stereo not drawn) [A-80]	≥ 75	≥ 75	≥ 75	≥ 50				
COc1ccc(F)cc1C(O)Cn1cc(C=NOC(C)C)c(=O)n(C(C)C(=O)NC(C)C)c1=O (stereo not drawn) [A-93]	≥ 75	≥ 75	≥ 75	≥ 50				
C=CCOC(Cn1cc(/C(C)=N/OCC)c(=O)n(CCNC(=O)C(C)C)c1=O)c1cc(F)ccc1OC (stereo not drawn) [A-95]	≥ 75	≥ 75	≥ 75	≥ 50				
COc1ccc(F)cc1C(Cn1cc(/C(C)=N/OC(C)C)c(=O)n(CCNC(=O)C(C)C)c1=O)OC (stereo not drawn) [A-100]	≥ 75	≥ 75	≥ 75	≥ 50				
CC[C@@H](Cn1c(=O)c(/C(C)=N/OC(C)C)cn(CC(O)c2ccccc2OC)c1=O)NC(=O)C(C)C (stereo partly drawn) [C-92]					≥ 60			
COc1ccc(Br)cc1C(O)Cn1cc(/C(C)=N/OC(C)C)c(=O)n(C[C@H](C)NC(=O)C(C)C)c1=O (stereo partly drawn) [C-145]					≥ 60			
